The data set can be described thus: GHS categories as the set defines them, by LD50: 1 up to 5, 2 up to 50, 3 up to 300, 4 up to 2000, 5 above 2000 mg/kg. The settings on record: rat; in vivo; po.

With `Cc1ccc2[nH]c3cc4c(=O)c5cc(C)ccc5[nH]c4cc3c(=O)c2c1`, the GHS category was found to be 5. `CC(C)c1c(C(=O)Nc2ccccc2)c(-c2ccccc2)c(-c2ccc(F)cc2)n1CC[C@@H]1C[C@H](CC(=O)OC(C)(C)C)OC(C)(C)O1` gave a GHS category of 5. As for `CC(c1ccc2c(c1)Cc1ccccc1-2)S(=O)CC(=O)O` (stereo not drawn), the GHS category was 4. `CO[C@@]1(NC(=O)C(C(=O)O)c2ccc(O)cc2)C(=O)N2C(C(=O)O)=C(CSc3nnnn3C)CO[C@@H]21` (stereo partly drawn) yielded a GHS category of 5. Compound `CC(C)C[C@H](N)C(=O)O` had a GHS category of 5. Next, `COCOC1CCCCCCCCCCC1`: 5; `CCC(COC(=O)c1cc(OC)c(OC)c(OC)c1)(c1ccccc1)N(C)C` (stereo not drawn): 5. Regarding `C[C@]12CC[C@@H]3c4ccc(O)cc4CC[C@H]3[C@@H]1C[C@@H](O)[C@@H]2O`, the GHS category was 5.

In the case of `CCCCCCCCCCCCCC(=O)O`, the GHS category was found to be 5. Next, `CC[N+](CC)(CC)CCOc1cccc(OCC[N+](CC)(CC)CC)c1OCC[N+](CC)(CC)CC`: 4; `CCCc1nc(C)n2[nH]c(=O)nc2c1Cc1ccc(-c2ccccc2-c2nn[nH]n2)cc1`: 4. Consider `C=C(C)CCO`, for which the GHS category turned out to be 5.

For `CN1C2CCC1CC(OS(C)(=O)=O)C2` (stereo not drawn), the GHS category is 4. Compound `CNC(=O)Nc1ccc(Cl)c(Cl)c1` yielded a GHS category of 4. On to `CCCc1c(Cc2ccc(-c3sccc3-c3nn[nH]n3)cc2)c(=O)nc2nc[nH]n12`, for which the GHS category is recorded as 4. The figure for `CCCC(CCC)C(=O)Oc1ccccc1OC` is 5; for `CC(C)(O)C(=O)c1ccc(Cc2ccc(C(=O)C(C)(C)O)cc2)cc1` it is 5; for `CC(C)(C)C1=CC(=Cc2ccccc2)C=C(C(C)(C)C)C1=O` it is 5. In the case of `C=CC(=O)OCC1(CC)COCOC1`, the GHS category was 5. Compound `O=c1cc(-c2ccccc2)c2ccc(OCCCN3CCC(c4ccccc4)CC3)cc2[nH]1` displayed a GHS category of 4.

As for `Clc1ccc(C(c2ccccc2Cl)C(Cl)Cl)cc1` (stereo not drawn), the GHS category is recorded as 5. Regarding `CCN1CCN(C(=O)N[C@@H](C(=O)N[C@@H]2C(=O)N3C(C(=O)O)=C(CSc4nnnn4C)CS[C@H]23)c2ccc(O)cc2)C(=O)C1=O`, the GHS category was 5. Consider `CC(C)CC(=O)OC1CC(C)CCC1C(C)C` (stereo not drawn), for which the GHS category is recorded as 5. The compound `Cc1c(C)c2c(c(C)c1OC(=O)CCC(=O)O)CC[C@@](C)(CCC[C@H](C)CCC[C@H](C)CCCC(C)C)O2` registered a GHS category of 5. Next, `Brc1cc(Oc2cc(Br)c(Br)c(Br)c2Br)c(Br)c(Br)c1Br`: 5; `CC(=O)OCC1=C(C(=O)O)N2C(=O)C(NC(=O)Cc3cccs3)C2SC1` (stereo not drawn): 5; `CCCCC1(CC)COC(Cn2cncn2)(c2cc3ccccc3o2)OC1` (stereo not drawn): 4. The compound `CCCCCCCCCCOC` showed a GHS category of 5. In the case of `CCCCCCCCC=CCCCCCCCC(=O)OC(C)C`, the GHS category is on record as 5.

In turn, `Nc1nccnc1C(=O)O` came in with a GHS category of 5. `CCCCOC(=O)Cc1ccccc1` registered a GHS category of 5. Consider `CC(C)CCC1CCC(O)CC1` (stereo not drawn), for which the GHS category was determined as 5. `COc1cc(OC)nc(NC(=O)NS(=O)(=O)c2c(C(=O)O)cnn2C)n1`: the GHS category is listed as 5. On to `C[Si](Cl)(Cl)C1CCCCC1`, for which the GHS category worked out at 5. Turning to `CN(CCNCc1cc(C(C)(C)C)cc(Br)c1O)CCNC(=O)c1nc(Cl)c(N)nc1N`, the GHS category is 4. For the compound `COc1ccc(C(=O)OC2=C(C(=O)Nc3ccccn3)N(C)S(=O)(=O)c3ccsc32)cc1`, the GHS category is listed as 2. The figure for `C[C@@H]1CN([C@H]2CC[C@](C#N)(c3ccc(F)cc3)CC2)CC[C@]1(C(=O)O)c1ccccc1` is 5; for `CCOc1ccc(C2(C(=O)OC(C#N)c3cccc(Oc4ccccc4)c3)CC2(Cl)Cl)cc1` (stereo not drawn) it is 5. `O=C(O)c1c(Cl)c(Cl)c(C(=O)O)c(Cl)c1Cl` displayed a GHS category of 5. Regarding `OC1CCC(N2CCCCC2)CC1` (stereo not drawn), the GHS category is 5. Consider `CCCc1c(Cc2ccc(-c3ccccc3-c3nn[nH]n3)cc2)c(=O)nc2[nH][nH]c(=O)n12`, for which the GHS category came out at 4.

The compound `Clc1cc(Cl)ncn1` came in with a GHS category of 3. `COc1c2ccoc2cc2oc(=O)ccc12` gave a GHS category of 5. `CCCCC(C)OP(=S)(OCC)OCC` (stereo not drawn) registered a GHS category of 4. `Nc1ccc(OS(=O)(=O)O)c(C(=O)O)c1` displayed a GHS category of 5. The compound `O=C(NC(=O)c1c(F)cccc1F)Nc1ccc(Oc2ccc(C(F)(F)F)cc2Cl)cc1F` came in with a GHS category of 5. `C[C@@H]1C[C@H]2C3C[C@H](F)C4=CC(=O)C=CC4(C)[C@@]3(F)[C@@H](O)CC2(C)[C@@]1(O)C(=O)COC(=O)C(C)(C)C` (stereo partly drawn) gave a GHS category of 5. `CC(=O)OCC(C)=CCCC1(C)C2CC3C(C2)C31C` (stereo not drawn) gave a GHS category of 5. In the case of `CCCCCCCCCCC[C@@H]1C[C@H](O)[C@H](CCCCCC)C(=O)O1`, the GHS category is listed as 5. Next, `COCc1c(Cc2ccc(-c3ccccc3-c3nn[nH]n3)cc2)c(=O)nc2nc[nH]n12`: 4; `CC(C)Cc1ccc(OP(=O)(Oc2ccc(CC(C)C)cc2)Oc2ccc(CC(C)C)cc2)cc1`: 5; `Cc1ccccc1OC(=O)c1cc(Cl)ccc1OC(N)=O`: 5. Next, `CC(=O)Nc1ccc(C2=NN(C(C)=O)C(C)Cc3cc4c(cc32)OCO4)cc1` (stereo not drawn): 4; `NC(CSCC(=O)O)C(=O)O` (stereo not drawn): 5. Compound `N#Cc1c(Cl)nc(Cl)c(C#N)c1-c1ccccc1` returned a GHS category of 5. Compound `C=C(C)C(=O)OCC(CC)CCCC` (stereo not drawn) showed a GHS category of 5. Next, `CC(=O)c1ccc2cc(CC(=O)O)ccc2c1`: 5; `CCCCCCCCNC(C)C(O)c1ccc2c(c1)CCCS2` (stereo not drawn): 5.

Compound `CCCCOC(=O)c1ccc(C(=O)OCCCC)cc1` yielded a GHS category of 5. As to `CCCCCCCC(=O)OOC(C)(C)C`, the GHS category is recorded as 5. `O=C(O)CCCCCCCC(=O)O` displayed a GHS category of 5.

`ClCCCCc1nnnn1C1CCCCC1` showed a GHS category of 5.

`CC1Oc2cc(C(=O)c3ccc(Cl)cc3)ccc2N(C)C1=O` (stereo not drawn) had a GHS category of 5. Consider `Cc1cc(C)c(Nc2ccc(Nc3c(C)cc(C)cc3C)c3c2C(=O)c2ccccc2C3=O)c(C)c1`, for which the GHS category came to 5. In turn, `O=C1COc2cc(C(=O)c3ccccc3)ccc2N1` registered a GHS category of 5.

In the case of `COc1cc(NS(=O)(=O)c2ccc(N)cc2)ncn1`, the GHS category was found to be 5. Compound `CC(=O)c1ccc(Oc2ccc(Cl)cc2)cc1Cl` registered a GHS category of 5.

The compound `CCCNC(=O)c1cnc2cc(C)ccn2c1=O` came in with a GHS category of 3. `CSCC[C@H](NC(=O)CCSC(=O)c1ccccc1)C(=O)O` gave a GHS category of 5. Next, `Cc1cc(=O)nc(C(C)(C)O)[nH]1`: 5; `CN1CC(CO)CC2c3cccc4c3c(cn4C(C)(C)C)CC21` (stereo not drawn): 4. The compound `C/C=C(\C)C(=O)OCC` gave a GHS category of 5. For the compound `CC(O)C1=CCC(C(C)(C)O)CC1O` (stereo not drawn), the GHS category worked out at 5.

(Values after the CATMoS acute toxicity set (Mansouri et al. 2021).)
